# Test results reported in patent US20240317777A1, “NOVEL MACROCYCLIC AMINOPYRAZOLE COMPOUNDS AS CDK2 INHIBITORS” (Accutar Biotechnology Inc., priority 2023, published 2024).
# Read-outs that look alike come from different tables or passages of the source.
# Legend:
# [1] = other bond
# [2] = molecular target: CDK1-CYCLIN B (Homo sapiens, UniProt P06493); test: CDK protein kinase inhibition by ADP-Glo assay, CDK1-CYCLIN B; type: biochemical; settings: ADP-Glo, 1000 μM ATP; Table 31; read-out: CDK1-CYCLINB, IC50
# Outline: (§1)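 Human CDK/cyclin complexes with peptide substrate, 1000 μM ATP, 5 mM MgCl2 in 100 mM HEPES pH 7.5, 0.1% BSA, 0.01% Triton X-100, 1 mM DTT, 1% DMSO, incubated at 22° C. ADP formed was detected by ADP-Glo luminescence after quench.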
# [3] = molecular target: CDK2-CYCLIN E1 (Homo sapiens, UniProt P24941); test: CDK protein kinase inhibition by ADP-Glo assay, CDK2-CYCLIN E1; type: biochemical; settings: ADP-Glo, 1000 μM ATP; Table 31; read-out: CDK2-CYCLINE, IC50
# Outline: as §1
# [4] = molecular target: CDK6-CYCLIN D3 (Homo sapiens, UniProt Q00534); test: CDK protein kinase inhibition by ADP-Glo assay, CDK6-CYCLIN D3; type: biochemical; settings: ADP-Glo, 1000 μM ATP; Table 31; read-out: CDK6-CYCLIND3, IC50
# Outline: as §1
# [5] = tested on: CCNE1-amplified OVCAR3 cells; test: Cell growth inhibition of CCNE1-amplified OVCAR3 cells (CellTiter-Glo); type: cell-based; settings: Homo sapiens, OVCAR-3, 144 h, 6 days
# Outline: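 Growth read-out was CellTiter-Glo luminescence, taken after 10 min at room temperature at the end of a 6-day compound exposure at 37 °C. Compounds were diluted from DMSO stocks across various concentrations.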
# [6] = tested on: Phospho-Rb (Ser807/811) in OVCAR3 cells; test: Phospho-Rb expression inhibition in OVCAR3 cells quantified by In Cell Western; type: cell-based; settings: Homo sapiens, OVCAR-3, 24 hours, read-out: OVCAR-3 pRb IC50
# Outline: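 In-cell western: after 24 h compound exposure at 37° C, fixed OVCAR3 cells co-stained for pRb Ser807/811 (800 nm channel) and total Rb (680 nm channel), imaged by LI-COR Odyssey.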
# [7] = molecular target: CDK9-CYCLIN T1 (Homo sapiens, UniProt P50750); test: CDK protein kinase inhibition by ADP-Glo assay, CDK9-CYCLIN T1; type: biochemical; settings: ADP-Glo, 1000 μM ATP; Table 31; read-out: CDK9-CYCLINT1, IC50
# Outline: as §1
# [8] = tested on: CCNE1-normal SKOV3 cells; test: Cell growth inhibition of CCNE1-normal SKOV3 cells (CellTiter-Glo); type: cell-based; settings: Homo sapiens, SK-OV-3, 144 h, 6 days
# Outline: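 Growth was measured by CellTiter-Glo luminescence after 6 days' compound exposure at 37 °C. Cells were plated one day before dosing at 1000 per well in medium with 10% FBS, and compounds were diluted from DMSO stocks.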
# [9] = molecular target: CDK4-CYCLIN D1 (Homo sapiens, UniProt P11802); test: CDK protein kinase inhibition by ADP-Glo assay, CDK4-CYCLIN D1; type: biochemical; settings: ADP-Glo, 1000 μM ATP; Table 31; read-out: CDK4-CYCLIND1, IC50
# Outline: as §1
# CDK9-CYCLIN T1, sequence (P50750 whole entry): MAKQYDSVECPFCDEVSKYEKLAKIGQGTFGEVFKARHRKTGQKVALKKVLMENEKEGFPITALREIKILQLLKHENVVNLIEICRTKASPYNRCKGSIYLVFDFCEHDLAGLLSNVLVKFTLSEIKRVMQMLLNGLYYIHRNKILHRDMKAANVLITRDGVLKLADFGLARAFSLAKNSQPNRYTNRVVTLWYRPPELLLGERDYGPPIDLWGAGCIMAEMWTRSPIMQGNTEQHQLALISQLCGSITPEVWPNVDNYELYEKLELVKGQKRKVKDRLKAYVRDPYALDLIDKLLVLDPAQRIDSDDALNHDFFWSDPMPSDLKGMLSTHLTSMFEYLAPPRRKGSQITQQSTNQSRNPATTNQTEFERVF
# CDK9-CYCLIN T1, sequence (O60563 whole entry partner): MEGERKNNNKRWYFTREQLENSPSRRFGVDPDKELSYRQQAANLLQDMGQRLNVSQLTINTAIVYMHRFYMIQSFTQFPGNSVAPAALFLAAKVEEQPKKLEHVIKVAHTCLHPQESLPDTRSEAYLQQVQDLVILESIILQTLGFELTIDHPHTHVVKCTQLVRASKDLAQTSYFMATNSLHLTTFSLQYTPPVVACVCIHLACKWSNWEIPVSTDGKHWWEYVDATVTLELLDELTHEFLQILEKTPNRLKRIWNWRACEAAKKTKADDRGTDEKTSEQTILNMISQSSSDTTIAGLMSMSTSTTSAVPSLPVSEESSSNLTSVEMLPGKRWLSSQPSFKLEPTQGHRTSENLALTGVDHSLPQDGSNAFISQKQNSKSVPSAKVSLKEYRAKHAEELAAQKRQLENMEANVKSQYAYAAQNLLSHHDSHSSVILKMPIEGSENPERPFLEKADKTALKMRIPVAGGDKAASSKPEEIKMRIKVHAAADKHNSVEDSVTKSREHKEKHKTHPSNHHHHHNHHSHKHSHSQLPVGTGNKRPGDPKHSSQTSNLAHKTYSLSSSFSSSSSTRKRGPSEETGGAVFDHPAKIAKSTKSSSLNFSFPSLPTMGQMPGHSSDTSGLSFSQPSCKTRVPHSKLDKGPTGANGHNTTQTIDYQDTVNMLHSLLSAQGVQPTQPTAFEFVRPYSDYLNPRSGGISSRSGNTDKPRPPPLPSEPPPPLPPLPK
# CDK4-CYCLIN D1, sequence (P11802 whole entry): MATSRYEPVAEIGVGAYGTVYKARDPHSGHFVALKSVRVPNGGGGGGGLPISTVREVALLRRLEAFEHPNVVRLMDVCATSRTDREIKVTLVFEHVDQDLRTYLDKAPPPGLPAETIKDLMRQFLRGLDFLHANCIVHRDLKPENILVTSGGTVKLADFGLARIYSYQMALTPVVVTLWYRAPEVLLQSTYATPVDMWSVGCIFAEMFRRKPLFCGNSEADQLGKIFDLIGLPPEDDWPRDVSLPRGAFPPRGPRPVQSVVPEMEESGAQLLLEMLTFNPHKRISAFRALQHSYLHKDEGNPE
# CDK4-CYCLIN D1, sequence (P24385 whole entry partner): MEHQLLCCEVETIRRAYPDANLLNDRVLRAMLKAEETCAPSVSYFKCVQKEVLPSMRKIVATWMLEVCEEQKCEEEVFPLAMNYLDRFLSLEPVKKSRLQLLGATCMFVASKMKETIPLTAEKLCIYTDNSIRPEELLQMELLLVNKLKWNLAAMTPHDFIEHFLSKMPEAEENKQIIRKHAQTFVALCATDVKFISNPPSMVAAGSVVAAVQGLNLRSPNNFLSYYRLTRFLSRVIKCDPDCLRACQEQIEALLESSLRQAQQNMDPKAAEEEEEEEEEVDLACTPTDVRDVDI
# CDK1-CYCLIN B, sequence (P06493 whole entry): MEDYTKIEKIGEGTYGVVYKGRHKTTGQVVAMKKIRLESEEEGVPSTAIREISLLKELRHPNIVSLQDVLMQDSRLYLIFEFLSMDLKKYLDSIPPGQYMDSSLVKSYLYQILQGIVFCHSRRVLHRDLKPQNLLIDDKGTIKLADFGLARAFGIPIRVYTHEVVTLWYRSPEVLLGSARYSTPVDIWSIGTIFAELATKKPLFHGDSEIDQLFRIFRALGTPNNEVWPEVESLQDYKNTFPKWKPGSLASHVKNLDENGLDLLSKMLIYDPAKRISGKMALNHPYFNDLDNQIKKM
# CDK1-CYCLIN B, sequence (P14635 whole entry partner): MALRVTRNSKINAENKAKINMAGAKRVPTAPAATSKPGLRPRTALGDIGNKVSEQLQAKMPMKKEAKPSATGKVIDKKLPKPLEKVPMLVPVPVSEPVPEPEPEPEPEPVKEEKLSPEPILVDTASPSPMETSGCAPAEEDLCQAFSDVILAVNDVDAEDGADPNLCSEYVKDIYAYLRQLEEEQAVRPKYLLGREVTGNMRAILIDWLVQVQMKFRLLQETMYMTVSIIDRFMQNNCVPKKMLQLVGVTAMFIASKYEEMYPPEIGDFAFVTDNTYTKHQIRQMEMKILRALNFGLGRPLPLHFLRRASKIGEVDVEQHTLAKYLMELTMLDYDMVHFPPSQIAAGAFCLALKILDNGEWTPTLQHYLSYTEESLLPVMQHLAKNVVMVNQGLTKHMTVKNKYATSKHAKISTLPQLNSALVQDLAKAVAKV
# CDK6-CYCLIN D3, sequence (Q00534 whole entry): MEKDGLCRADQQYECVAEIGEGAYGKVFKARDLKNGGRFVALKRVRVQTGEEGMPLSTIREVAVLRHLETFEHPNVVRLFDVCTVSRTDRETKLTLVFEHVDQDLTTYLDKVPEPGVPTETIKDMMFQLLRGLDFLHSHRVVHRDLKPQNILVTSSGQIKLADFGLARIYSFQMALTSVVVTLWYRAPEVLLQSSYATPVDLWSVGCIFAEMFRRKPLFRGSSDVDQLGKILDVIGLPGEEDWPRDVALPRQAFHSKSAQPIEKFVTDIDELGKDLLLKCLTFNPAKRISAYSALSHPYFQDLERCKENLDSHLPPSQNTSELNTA
# CDK6-CYCLIN D3, sequence (P30281 whole entry partner): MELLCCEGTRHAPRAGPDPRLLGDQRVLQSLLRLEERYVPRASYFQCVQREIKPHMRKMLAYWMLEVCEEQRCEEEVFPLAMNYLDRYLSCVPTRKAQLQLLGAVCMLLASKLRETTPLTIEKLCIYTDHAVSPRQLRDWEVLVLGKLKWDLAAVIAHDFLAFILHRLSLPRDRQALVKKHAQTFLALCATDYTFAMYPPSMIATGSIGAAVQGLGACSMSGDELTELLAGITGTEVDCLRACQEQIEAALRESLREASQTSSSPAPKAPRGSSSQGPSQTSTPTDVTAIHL
structure (smiles),measurement,setting,value
C[C@@H]1CC/C=C/c2cc(ccn2)Nc2cc(nn2C(C)(C)C)[C@H]2CC[C@H](C2)OC(=O)N1,"ring closure, yield of all isomers","[1]; from C[C@@H](N)CC/C=C/c1cc(Nc2cc([C@H]3CC[C@@H](OC(=O)Oc4ccc([N+](=O)[O-])cc4)C3)nn2C(C)(C)C)ccn1, DIEA, THF, 1.46 mM, 70.0 °C, 12.0 h",98.6%
C[C@@H]1CCCCc2cc(ccn2)Nc2cc(nn2C(C)(C)C)[C@H]2CC[C@H](C2)OC(=O)N1,"ring closure, yield of all isomers","[1]; from C[C@@H](N)CCCCc1cc(Nc2cc([C@H]3CC[C@@H](OC(=O)Oc4ccc([N+](=O)[O-])cc4)C3)nn2C(C)(C)C)ccn1, DIPEA, THF, 1.42 mM, 100.0 °C, 3.0 h",99.5%
C[C@@H]1NC(=O)O[C@@H]2CC[C@@H](C2)c2cc(n(C(C)(C)C)n2)Nc2ccnc(c2)OCCC1(F)F,"ring closure, yield of all isomers","[1]; from C[C@H](N)C(F)(F)CCOc1cc(Nc2cc([C@H]3CC[C@@H](OC(=O)Oc4ccc([N+](=O)[O-])cc4)C3)nn2C(C)(C)C)ccn1, DIEA, DMSO, 1.15 mM, 100.0 °C, 16.0 h",87.3%
C[C@@H]1NC(=O)O[C@@H]2CC[C@@H](C2)c2cc(n(C(C)(C)C)n2)Nc2ccnc(c2)OCCC1F (stereo partly drawn),"ring closure, yield of all isomers","[1]; from C[C@H](N)C(F)CCOc1cc(Nc2cc([C@H]3CC[C@@H](OC(=O)Oc4ccc([N+](=O)[O-])cc4)C3)nn2C(C)(C)C)ccn1, DIEA, DMSO, 1.71 mM, 100.0 °C, 2.0 h",97%
C[C@@H]1NC(=O)O[C@H]2C[C@H](C[C@H]2F)c2cc(n(C(C)(C)C)n2)Nc2ccnc(c2)OCCC1(F)F,"ring closure, yield of all isomers","[1]; from C[C@H](N)C(F)(F)CCOc1cc(Nc2cc([C@H]3C[C@@H](F)[C@@H](OC(=O)Oc4ccc([N+](=O)[O-])cc4)C3)nn2C(C)(C)C)ccn1, DIEA, DMSO, 3.13 mM, 100.0 °C, 12.0 h",88%
C[C@H]1CC(F)(F)COc2cc(ccn2)Nc2cc(nn2C(C)(C)C)[C@H]2CC[C@H](C2)OC(=O)N1,"ring closure, yield of all isomers","[1]; from C[C@H](N)CC(F)(F)COc1cc(Nc2cc([C@H]3CC[C@@H](OC(=O)Oc4ccc([N+](=O)[O-])cc4)C3)nn2C(C)(C)C)ccn1, DIEA, THF, 1.83 mM, 80.0 °C, 12.0 h",66.2%
C[C@H]1CC/C=C/c2cc(ccn2)Nc2cc(nn2C(C)(C)C)[C@H]2CC[C@H](C2)OC(=O)N1,"ring closure, yield of all isomers","[1]; from C[C@H](N)CC/C=C/c1cc(Nc2cc([C@H]3CC[C@@H](OC(=O)Oc4ccc([N+](=O)[O-])cc4)C3)nn2C(C)(C)C)ccn1, DIEA, THF, 1.6 mM, 60.0 °C, 2.0 h",93.9%
C[C@H]1CCCC(F)(F)c2cc(ccn2)Nc2cc(nn2C(C)(C)C)[C@H]2CC[C@H](C2)OC(=O)N1,"ring closure, yield of all isomers","[1]; from C[C@H](N)CCCC(F)(F)c1cc(Nc2cc([C@H]3CC[C@@H](OC(=O)Oc4ccc([N+](=O)[O-])cc4)C3)nn2C(C)(C)C)ccn1, DIEA, THF, 1.33 mM, 25.0 °C, 3.0 h",99.3%
C[C@H]1CCCCc2cc(ccn2)Nc2cc(nn2C(C)(C)C)[C@H]2CC[C@H](C2)OC(=O)N1,"ring closure, yield of all isomers","[1]; from C[C@H](N)CCCCc1cc(Nc2cc([C@H]3CC[C@@H](OC(=O)Oc4ccc([N+](=O)[O-])cc4)C3)nn2C(C)(C)C)ccn1, DIEA, THF, 0.92 mM, 20.0 °C, 4.0 h",91.9%
C[C@H]1CCCOc2cc(c(F)cn2)Nc2cc(nn2C(C)(C)C)[C@H]2CC[C@H](C2)OC(=O)N1,"ring closure, yield of all isomers","[1]; from C[C@H](N)CCCOc1cc(Nc2cc([C@H]3CC[C@@H](OC(=O)Oc4ccc([N+](=O)[O-])cc4)C3)nn2C(C)(C)C)c(F)cn1, DIEA, THF, 1.71 mM, 25.0 °C, 3.0 h",99.9%
C[C@H]1CCCOc2cc(cc(F)n2)Nc2cc(nn2C(C)(C)C)[C@H]2CC[C@H](C2)OC(=O)N1,"ring closure, yield of all isomers","[1]; from C[C@H](N)CCCOc1cc(Nc2cc([C@H]3CC[C@@H](OC(=O)Oc4ccc([N+](=O)[O-])cc4)C3)nn2C(C)(C)C)cc(F)n1, DIEA, THF, 1.71 mM, 25.0 °C, 3.0 h",97.8%
C[C@@H]1NC(=O)O[C@@H]2CC[C@@H](C2)c2cc([nH]n2)Nc2ccnc(c2)COCC1(F)F [compound 164],IC50,[2],≤ 0.01 µM
same,IC50,[3],≤ 0.01 µM
same,IC50,[4],0.01 to 0.05 µM
same,IC50,[5],≤ 0.002 µM
same,IC50,[6],≤ 0.002 µM
same,IC50,[7],≤ 0.01 µM
same,IC50,[8],0.01 to 0.05 µM
same,IC50,[9],≤ 0.01 µM
C[C@H]1NC(=O)O[C@@H]2CC[C@@H](C2)c2cc([nH]n2)Nc2ccnc(c2)COCC1(F)F [compound 165],IC50,[2],0.01 to 0.05 µM
same,IC50,[3],0.01 to 0.05 µM
same,IC50,[4],0.01 to 0.05 µM
same,IC50,[5],0.01 to 0.05 µM
same,IC50,[6],0.002 to 0.01 µM
same,IC50,[7],0.05 to 0.1 µM
same,IC50,[8],0.05 to 0.25 µM
same,IC50,[9],0.01 to 0.05 µM
